In patent EP0017976A2, “Process for preparing imidazole derivatives” (F. HOFFMANN-LA ROCHE & CO. Aktiengesellschaft, priority 1979, dated 1980):

Key:
Schistosoma mansoni = test: Schistosomicidal effect: share of living and dead worm pairs in liver vessels of infected mice, treated vs untreated; VD50 by probit method; assay type: in vivo; conditions: mice infected with cercariae of Schistosoma mansoni; qualitative statement only, VD50 not given
Description: Die schistosomicide Wirkung wurde ermittelt durch Vergleich des prozentualen Anteils lebender und toter Wurmpaare in den Gefässen der Leber sowohl bei mit Cercarien von Schistosoma mansoni infizierten, behandelten Mäusen als auch bei infizierten aber unbehandelten Kontrolltieren. Die Bestimmung der VD50 (Vermicide Dosis 50%: Dosis, die 50% der Wurmpaare abtötet) erfolgte nach der Probitmethode.

[1] = test system: ventralen Prostata und der Samenblase; test: Antiandrogenic effect: weight decrease of ventral prostate and seminal vesicle in male sterilised rats; assay type: in vivo, Ratten; conditions: qualitative statement only
Description: Die antiandrogene Wirkung wurde durch Bestimmung der Gewichtsabnahme der ventralen Prostata und der Samenblase von männlichen sterilisierten Ratten ermittelt.

Compound	schistosomicide Wirkung (Schistosoma mansoni)	antiandrogene Wirkung [1]
CC1(C)NC(=O)N(c2ccc(F)c(C(F)(F)F)c2)C1=N [1-(3-Trifluormethyl-4-fluor-phenyl)-5-imino-4,4-dimethyl-2-imidazolidinon]	starken schistosomiciden Wirkung	–
CC1(C)NC(=O)N(c2ccc(F)c(Cl)c2)C1=O [3-(3-Chlor-4-fluor-phenyl)-5,5-dimethylhydantoin]	–	antiandrogen wirksame
CC1(C)NC(=O)N(c2ccc(F)c(C(F)(F)F)c2)C1=O [3-(3-Trifluormethyl-4-fluorphenyl)-5,5-dimethyl-hydantoin]	starken schistosomiciden Wirkung	–
